Reference: ChEMBL document CHEMBL1131530, “Synthesis and biological activities of tricyclic conformationally restricted tetrahydropyrido annulated furo[2,3-d]pyrimidines as inhibitors of dihydrofolate reductases” (J Med Chem, 1998)

Tests used:
[1] = Selectivity for dihydrofolate reductase enzyme in rat liver Toxoplasma gondii
[2] = Selectivity for dihydrofolate reductase enzyme in rat liver and Pneumocystis carinii
Dihydrofolate reductase [3] = molecular target: T1, Dihydrofolate reductase (Rattus norvegicus, UniProt Q920D2)
T1 sequence (Q920D2 whole entry): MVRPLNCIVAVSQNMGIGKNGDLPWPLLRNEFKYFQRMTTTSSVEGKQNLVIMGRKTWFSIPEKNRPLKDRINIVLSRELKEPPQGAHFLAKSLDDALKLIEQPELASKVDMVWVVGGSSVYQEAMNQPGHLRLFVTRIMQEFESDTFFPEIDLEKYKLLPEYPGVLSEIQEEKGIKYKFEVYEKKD
Description: Inhibition of Dihydrofolate reductase of rat liver

[4] = molecular target: T2, Bifunctional dihydrofolate reductase-thymidylate synthase (Toxoplasma gondii, UniProt Q07422)
T2 sequence (Q07422 whole entry): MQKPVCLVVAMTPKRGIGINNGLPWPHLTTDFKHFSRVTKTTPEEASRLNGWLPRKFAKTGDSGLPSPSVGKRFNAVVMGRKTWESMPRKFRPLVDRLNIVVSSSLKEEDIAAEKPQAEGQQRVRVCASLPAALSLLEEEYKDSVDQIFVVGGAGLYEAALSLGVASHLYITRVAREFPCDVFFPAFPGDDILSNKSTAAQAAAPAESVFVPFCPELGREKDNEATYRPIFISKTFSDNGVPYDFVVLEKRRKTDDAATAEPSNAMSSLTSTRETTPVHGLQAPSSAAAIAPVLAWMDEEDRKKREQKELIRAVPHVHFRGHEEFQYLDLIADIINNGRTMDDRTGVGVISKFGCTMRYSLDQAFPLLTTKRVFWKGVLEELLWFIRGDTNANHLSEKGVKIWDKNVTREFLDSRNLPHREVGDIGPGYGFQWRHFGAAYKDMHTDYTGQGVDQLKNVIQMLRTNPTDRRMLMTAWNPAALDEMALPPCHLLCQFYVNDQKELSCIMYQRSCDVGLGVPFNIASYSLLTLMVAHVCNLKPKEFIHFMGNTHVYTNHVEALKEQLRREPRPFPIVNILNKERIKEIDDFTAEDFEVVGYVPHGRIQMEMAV
Description: Inhibition of Toxoplasma gondii Dihydrofolate reductase

Dihydrofolate reductase [5] = molecular target: T3, Dihydrofolate reductase (Pneumocystis carinii, UniProt P16184)
T3 sequence (P16184 whole entry): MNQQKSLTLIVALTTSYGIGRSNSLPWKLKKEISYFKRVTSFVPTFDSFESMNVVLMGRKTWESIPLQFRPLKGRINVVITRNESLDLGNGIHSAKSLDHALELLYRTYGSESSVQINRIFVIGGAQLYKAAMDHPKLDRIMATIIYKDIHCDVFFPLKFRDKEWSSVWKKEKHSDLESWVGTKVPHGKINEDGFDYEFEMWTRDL
Description: Inhibition of Pneumocystis carinii dihydrofolate reductase

Dihydrofolate reductase [6] = molecular target: T4, Dihydrofolate reductase (Mycobacterium avium, UniProt O30463); assay: Inhibitory concentration was evaluated against […] Dihydrofolate reductase enzyme in Mycobacterium avium.
T4 sequence (O30463 whole entry): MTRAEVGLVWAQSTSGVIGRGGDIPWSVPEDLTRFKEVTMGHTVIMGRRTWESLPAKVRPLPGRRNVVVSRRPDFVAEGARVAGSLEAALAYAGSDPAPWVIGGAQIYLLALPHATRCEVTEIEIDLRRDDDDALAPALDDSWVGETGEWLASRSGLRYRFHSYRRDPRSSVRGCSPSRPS

[7] = molecular target: T5, Folylpolyglutamate synthase, mitochondrial (Homo sapiens) (UniProt Q05932); assay: Activity of substrate for human FPGS was evaluated and compared to that of aminopterin (AMT)
T5 sequence (whole entry): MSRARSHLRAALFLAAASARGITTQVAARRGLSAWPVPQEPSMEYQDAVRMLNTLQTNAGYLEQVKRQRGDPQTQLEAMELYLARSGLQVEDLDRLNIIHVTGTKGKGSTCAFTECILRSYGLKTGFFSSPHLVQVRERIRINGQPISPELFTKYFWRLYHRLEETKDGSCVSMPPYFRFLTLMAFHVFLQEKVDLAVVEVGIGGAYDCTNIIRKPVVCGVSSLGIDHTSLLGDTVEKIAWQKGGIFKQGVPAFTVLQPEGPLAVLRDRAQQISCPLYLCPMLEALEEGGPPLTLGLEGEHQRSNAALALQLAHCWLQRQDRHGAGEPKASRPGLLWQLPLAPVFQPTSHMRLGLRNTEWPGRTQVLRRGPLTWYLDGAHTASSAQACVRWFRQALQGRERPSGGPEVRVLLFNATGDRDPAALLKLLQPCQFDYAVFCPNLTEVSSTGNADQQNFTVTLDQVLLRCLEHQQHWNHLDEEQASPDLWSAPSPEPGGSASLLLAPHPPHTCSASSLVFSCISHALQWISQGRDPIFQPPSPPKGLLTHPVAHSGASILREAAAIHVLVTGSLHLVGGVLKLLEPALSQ

Homo sapiens = species: Homo sapiens; assay: Growth inhibition was measured for inhibition of growth in FaDu human squamous cell carcinoma of the head and neck.; format: functional
CCRF-CEM [8] = assay: Growth inhibition was measured as for inhibition of growth in CCRF-CEM cells.; format: functional, cell-based; conditions: Homo sapiens
CCRF-CEM [9] = assay: Growth inhibition was measured for inhibition of growth in CCRF-CEM sublines resistant to MTX solely as a result of decreased polyglutamation.; format: functional, cell-based; conditions: Homo sapiens
CCRF-CEM [10] = assay: Growth inhibition was measured for inhibition of growth in CCRF-CEM subline resistant to MTX solely as a result of a 20-fold increase in wild-type DHFR protein and activity.; format: functional, cell-based; conditions: Homo sapiens
[11] = substrate: Nc1nc(N)c2c3c(oc2n1)CN(Cc1ccc(C(=O)N[C@@H](CCC(=O)O)C(=O)O)cc1)CC3; assay: Binding affinity was evaluated on CCRF-CEM human leukemia cell folyl-poly-glutamate synthetase.; format: cell-based

CN(Cc1coc2nc(N)nc(N)c12)c1ccc(C(=O)NC(CCC(=O)O)C(=O)O)cc1 (configuration not stated)
Selectivity ratio [1]: 0.021
Selectivity ratio [2]: 12.2

Nc1nc(N)c2c3c(oc2n1)CN(Cc1ccc(Cl)cc1Cl)CC3
Selectivity ratio [1]: 3.9
IC50 (Dihydrofolate reductase [3]): 50.9 µM
Selectivity ratio [2]: 2.3
IC50 [4]: 13.1 µM
IC50 (Dihydrofolate reductase [5]): 22.6 µM
IC50 (Dihydrofolate reductase [6]): > 50 µM

Nc1nc(N)c2c3c(oc2n1)CN(Cc1c(Cl)cccc1Cl)CC3
Selectivity ratio [1]: 2.5
IC50 (Dihydrofolate reductase [3]): 81.2 µM
Selectivity ratio [2]: 2
IC50 [4]: 31.7 µM
IC50 (Dihydrofolate reductase [5]): 40.5 µM
IC50 (Dihydrofolate reductase [6]): > 81.2 µM

Nc1nc(N)c2c3c(oc2n1)CN(Cc1ccccc1)CC3
Selectivity ratio [1]: > 10
IC50 (Dihydrofolate reductase [3]): 15 µM
IC50 [4]: 1.4 µM
IC50 (Dihydrofolate reductase [5]): > 9 µM
IC50 (Dihydrofolate reductase [6]): > 15 µM

COc1cc(CN2CCc3c(oc4nc(N)nc(N)c34)C2)cc(OC)c1OC
IC50 (Dihydrofolate reductase [3]): > 35 µM
IC50 [4]: > 35 µM
IC50 (Dihydrofolate reductase [5]): > 35 µM
IC50 (Dihydrofolate reductase [6]): 12.1 µM

Nc1nc(N)c2nc(CNc3ccc(C(=O)N[C@@H](CCC(=O)O)C(=O)O)cc3)cnc2n1
Relative Vmax [7]: 1

Nc1nc(N)c2c(CNc3ccc(C(=O)NC(CCC(=O)O)C(=O)O)cc3)coc2n1 (configuration not stated)
Selectivity ratio [1]: 1.9
Selectivity ratio [2]: 1.4

COc1cc(CN2CCc3c(oc4nc(N)nc(N)c34)C2)cc(OC)c1
IC50 (Dihydrofolate reductase [3]): 22.8 µM
IC50 [4]: > 20.4 µM
IC50 (Dihydrofolate reductase [5]): > 22.8 µM
IC50 (Dihydrofolate reductase [6]): > 20 µM

CN(Cc1cnc2nc(N)nc(N)c2n1)c1ccc(C(=O)N[C@@H](CCC(=O)O)C(=O)O)cc1 [METHOTREXATE]
EC50 (Homo sapiens): 0.0172 µM

Nc1nc(N)c2c3c(oc2n1)CN(Cc1ccc(Cl)c(Cl)c1)CC3
IC50 (Dihydrofolate reductase [3]): 20.6 µM
Selectivity ratio [2]: 0.9
IC50 [4]: 22.3 µM
IC50 (Dihydrofolate reductase [5]): 24.1 µM
IC50 (Dihydrofolate reductase [6]): > 20 µM

Nc1nc(N)c2c3c(oc2n1)CN(Cc1ccc(C(=O)N[C@@H](CCC(=O)O)C(=O)O)cc1)CC3
Selectivity ratio [1]: 4
EC50 (Homo sapiens): > 100 µM
EC50 (CCRF-CEM [8]): 3.6 µM
IC50 (Dihydrofolate reductase [3]): 85.8 µM
Selectivity ratio [2]: 7.9
IC50 [4]: 21.5 µM
IC50 (Dihydrofolate reductase [6]): 0.97 µM
Relative Vmax [7]: 0.29
EC50 (CCRF-CEM [9]): > 50 µM
EC50 (CCRF-CEM [10]): 10.3 µM

B1: Folylpolyglutamate synthase, mitochondrial (Homo sapiens), Q05932 (protein)
chain: T5 sequence (whole entry)
Km [11]: 6.2 µM
